Holding throughout (format): physicochemical
A short description of data set [1]: Amount of phase-changing probe 2-EHDG required until phase structure changes (Wm phase to Om phase + W phase); liquid physical property index read from calibration curve.
Assay in data set [2]: as above
The settings on record: for Solution physical property index (corresponding HLB) from calibration curve: 100 mmol/kg. The procedure:
(§1) Using the following components, precursor samples and standard samples for preparing calibration curves were prepared, and using any of the following phase-changing probes, an amount of the phase-changing probe required until a phase structure of a standard sample changed was quantified for each of a plurality of surfactants (G). The calibration curves were prepared from the plurality of quantitative values obtained. • Surfactant (G): a plurality of polyoxyethylene lauryl ethers with different average numbers of added moles of the ethylene oxide • Oil component: an isoparaffin with an average number of carbons of 16 (hereinafter, referred to as C16 isoparaffin) • Phase-changing probe: 2-ethylhexyl diglycol or butyldiglycol
(§2) The concentration of surfactant (G) in each precursor sample was 200 mmol/kg (the balance was water).
(§3) The amount of the oil component added per 100 g of each precursor sample was determined to be 4 g by assigning 50 to X in the aforementioned formula (I).
For this standard sample, 2-ethylhexyl diglycol (hereinafter, sometimes also referred to as 2-EHDG) was used as the phase-changing probe, and an amount of the phase-changing probe required until a phase structure of the standard sample changed from a micellar solution phase (Wm phase) to a mixed system of a reversed micellar oil solution phase (Om phase) and a water phase (W phase) was taken as the quantitative value.
(§4) Note that, in either case, the ambient temperature when the phase-changing probe was added to the standard sample was 25° C. Further, in either case, the phase-changing probe was added to the standard sample under the condition of being stirred with a magnetic stirrer.
(§5) Note that the quantitative values and HLB values were entered into spreadsheet software “Excel” (manufactured by Microsoft Corporation) to be processed, thereby obtaining the calibration curves as regression lines (calibration curves 1 and 2). Calibration curves 1 and 2 are shown in Graph A (FIG. 1).
As the oil components, components shown in Table 3 were used; as the phase-changing probe, 2-EHDG was used; and the concentration of surfactant (G) in each precursor sample was 100 mmol/kg. Note that, in this example, the amount of an oil component added per 100 g of each precursor sample was determined to be 2 g by assigning 50 to X in the aforementioned formula (I).
A measurement sample was prepared by adding 2 g of any of the oil components shown in Table 3 per 100 g of the aqueous sample.
2-EHDG as the phase-changing probe was added to the measurement sample under the same conditions as those for preparing the calibration curves, and an amount of the phase-changing probe required until a phase structure changed was quantified.

Data set [3] is described as follows: Amount of phase-changing probe BDG required until phase structure changes (Om phase + W phase to Wm phase). The settings on record: surfactant 200 mmol/kg; C16 isoparaffin 4 g per 100 g; 25° C.; for calibration curve 2. The procedure:
as §1, §2, §3
On the other hand, in the case where an average number of added moles of the ethylene oxide of surfactant (G) was relatively small (the average number of added moles was 2 to 5), the initial phase structure of the standard sample was a mixed system of a reversed micellar oil solution phase (Om phase) and a water phase (W phase). For this standard sample, butyldiglycol (hereinafter, sometimes also referred to as BDG) was used as the phase-changing probe, and an amount of the phase-changing probe required until a phase structure of the standard sample changed from a mixed system of a reversed micellar oil solution phase (Om phase) and a water phase (W phase) to a micellar solution phase (Wm phase) was taken as the quantitative value.
as §4, §5

[4] abbreviates: surfactant 100 mmol/kg, solvent BDG 5 mass %, C16 isoparaffin 2 g per 100 g, 25° C., calibration curve 10, no inorganic salt.
Where [5] appears, read: surfactant 100 mmol/kg, solvent BDG 5 mass %, C16 isoparaffin 2 g per 100 g, no inorganic salt.
Where [6] appears, read: surfactant 100 mmol/kg, oil component C16 isoparaffin 2 g per 100 g, calibration curve 3.
The mark [7] stands for this setting: surfactant 100 mmol/kg, oil component Cyclohexane 2 g per 100 g, calibration curve 7.
Where [8] appears, read: surfactant 100 mmol/kg, oil component Decane 2 g per 100 g, calibration curve 4.
[9] abbreviates: surfactant 100 mmol/kg, oil component Hexadecane 2 g per 100 g, calibration curve 6.
The mark [10] stands for this setting: surfactant 100 mmol/kg, oil component Tetradecane 2 g per 100 g, calibration curve 5.
The mark [11] stands for this setting: surfactant 200 mmol/kg, C16 isoparaffin 4 g per 100 g, 25° C., for calibration curve 1.
Where [12] appears, read: concentration of polyoxyethylene lauryl ether 5 mmol/kg, C16 isoparaffin 0.1 g per 100 g, calibration curve 8.
[13] abbreviates: concentration of polyoxyethylene lauryl ether 350 mmol/kg, C16 isoparaffin 7 g per 100 g, calibration curve 9.

Experimental findings from US12153062B2, “Method for estimating physical property of aqueous sample” (Kao Corporation, priority 2018, dated 2024) are described below.

Take `CCCCCCCCCCCC[N+](C)(C)Cc1ccccc1.[Cl-]` [Lauryldimethylbenzylammonium chloride]: the “Quantitative value (g) of phase-changing probe (2-EHDG)” value (“Quantitative value (g) … (2-EHDG)” for short) in data set [1] (setting [4]) turned out to be 10.36 g. Besides, in data set [1] (setting [5]), the “Solution physical property index (corresponding HLB) from calibration curve 10” value worked out at 13.97.
For `CCCCCCCCCCCC[N+](C)(C)C.[Cl-]` [Lauryltrimethylammonium chloride], in that order: 11.04 g and 14.25.
On to `CCCCCCCCCCCCCC[N+](C)(C)[O-]` [Myristyl dimethylamine oxide], for which, in data set [1] (setting [4]), the “Quantitative value (g) … (2-EHDG)” value is on record as 4.72 g. Besides, the “Solution physical property index (corresponding HLB) from calibration curve 10” value in data set [1] (setting [5]) was 11.60.
`CCCCCCCCCCCC[N+](C)(C)CC(O)CS(=O)(=O)[O-]` (stereo not drawn) [N-lauryl-N,N-dimethyl-N-(2-hydroxysulfopropyl)ammonium sulfobetaine]: the “Solution physical property index (corresponding HLB) from calibration curve” value in data set [2] (oil component C16 isoparaffin, calibration curve 3) is given as 11.46; in data set [2] (oil component Decane, calibration curve 4), 11.52; in data set [2] (oil component Hexadecane, calibration curve 6), 11.44; in data set [2] (oil component Tetradecane, calibration curve 5), 11.47. Besides, the “Quantitative value (g) … (2-EHDG)” value in data set [2] (setting [6]) was 2.36 g; in data set [2] (setting [7]) it was 1.15 g; in data set [2] (setting [8]), 2.36 g; in data set [2] (setting [9]) it was 2.78 g; in data set [2] (setting [10]) it was 2.66 g; in data set [1] (setting [4]), 3.60 g.
As to `CCCCCCCC[N+](C)(C)Cc1ccccc1.[Cl-]` [Octyldimethylbenzylammonium chloride], the “Quantitative value (g) … (2-EHDG)” value in data set [1] (setting [4]) was 9.20 g. Also, in data set [1] (setting [5]), the “Solution physical property index (corresponding HLB) from calibration curve 10” value worked out at 13.48.
For `CCCCCCCCCCCCCCCC[N+](C)(C)C.[Cl-]` [Palmityltrimethylammonium chloride], in that order: 9.12 g and 13.45.
For `CCCCC(CC)COC(=O)CC(C(=O)OCC(CC)CCCC)S(=O)(=O)[O-].[Na+]` (stereo not drawn) [Sodium di-2-ethylhexylsulfosuccinate] the same measures were 5.50 g and 11.93.
For Lauryl glucoside, the “Quantitative value (g) … (2-EHDG)” value in data set [1] (setting [4]) turned out to be 4.44 g. Also, the “Solution physical property index (corresponding HLB) from calibration curve 10” value in data set [1] (setting [5]) is on record as 11.48.
For “Sodium polyoxyethylene (2 moles on average) lauryl ether sulfate”, in that order: 17.68 g and 17.04.
For “Sodium polyoxyethylene (4 moles on average) lauryl ether sulfate” the same measures were 19.88 g and 17.96.
“polyoxyethylene (6 moles on average) lauryl ether [Polyoxyethylene lauryl ether 6]”: the “Quantitative value (g) … (2-EHDG)” value worked out at 2.96 g in data set [2] (setting [6]); 1.96 g in data set [2] (setting [7]); 2.78 g in data set [2] (setting [8]); 3.4 g in data set [2] (setting [9]); 3.2 g in data set [2] (setting [10]); 1.7 g in data set [2] (setting [11]). The “Quantitative value (g) … (2-EHDG)” value in data set [1] (setting [12]) is 0.24 g; in data set [1] (setting [13]), 2.44 g; in data set [1] (setting [4]), 4.76 g.
With “polyoxyethylene lauryl ether [Polyoxyethylene lauryl ether 2]”, in data set [3], the “Quantitative value (g) of phase-changing probe (BDG)” value turned out to be 18.57 g.
The same measure, in the same setting: with “polyoxyethylene lauryl ether [Polyoxyethylene lauryl ether 3]” the figure was 13.2 g.
For the molecule “polyoxyethylene lauryl ether [Polyoxyethylene lauryl ether 4]”, the “Quantitative value (g) of phase-changing probe (BDG)” value in data set [3] is 7.29 g. Besides, the “Quantitative value (g) … (2-EHDG)” value in data set [1] (setting [4]) turned out to be 1.16 g.
For “polyoxyethylene lauryl ether [Polyoxyethylene lauryl ether 5]”, in that order: 5.5 g and 2.12 g.
Regarding “polyoxyethylene lauryl ether [Polyoxyethylene lauryl ether 9]”, the “Quantitative value (g) … (2-EHDG)” value in data set [2] (setting [6]) is 7.58 g; in data set [2] (setting [7]), 5.84 g; in data set [2] (setting [8]), 6.98 g; in data set [2] (setting [9]) it was 7.74 g; in data set [2] (setting [10]) it was 7.6 g; in data set [2] (setting [11]) it was 5.38 g. In addition, the “Quantitative value (g) … (2-EHDG)” value in data set [1] (setting [12]) was determined as 0.46 g; in data set [1] (setting [13]), 9.36 g; in data set [1] (setting [4]) it was 9.46 g.
Take “polyoxyethylene lauryl ether [Polyoxyethylene lauryl ether 12]”: the “Quantitative value (g) … (2-EHDG)” value in data set [2] (setting [6]) stood at 10.24 g; in data set [2] (setting [7]) it was 8.24 g; in data set [2] (setting [8]), 9.4 g; in data set [2] (setting [9]), 10.24 g; in data set [2] (setting [10]), 10.02 g; in data set [2] (setting [11]), 7.4 g. Moreover, the “Quantitative value (g) … (2-EHDG)” value is on record as 0.94 g in data set [1] (setting [12]), 11.76 g in data set [1] (setting [13]) and 12.5 g in data set [1] (setting [4]).
Consider “polyoxyethylene lauryl ether [Polyoxyethylene lauryl ether 21]”, for which the “Quantitative value (g) … (2-EHDG)” value in data set [2] (setting [11]) turned out to be 11.92 g; in data set [1] (setting [12]), 1.28 g.
